Where two headings read alike, the source gives them in different places.
Key:
[1] = at the metabisulfite levels contemplated; 60° C.
Experimental: A 1.1 mg/ml solution of adrenaline (6.004×10^−3 M), in the form of the tartrate, pH 3.4 and containing 0.6% sodium chloride was used. A range of metabisulfite antioxidant concentrations, with and without admixture of 0.25% di-sodium edetate as chelating agent were tested. The metabisulfite/adrenaline molar ratios tested were 0.1, 0.2, 0.5, 1.0 and 1.5, which correspond to sulfite/adrenaline ratios of 0.2, 0.4, 1.0, 2.0 and 3.0, respectively. For the ease of reference to the general description and claims of this specification, the said values correspond to a molar ratio of adrenaline to sulfite of 5.0, 2.5, 1.0, 0.5 and 0.33, respectively.
The accelerated test temperature was 60° C., protected from light, and samples were pulled at 0, 7, 14, 21 and 28 days. At each pull point, the appearance of the test solution was assessed, the pH measured and the solution assayed for adrenaline content. The appearance of degradation products was noted as area %.
[adr]^+ relates to samples containing 0.025% di-sodium edetate, whereas [adr] relates to samples containing no chelating agent.

[2] = remark: listed apart in the source
Experimental: The formulation solutions were prepared at a level of 1.0 mg/ml adrenaline (in the form of the tartrate), pH 3.4 containing, 0.6% sodium chloride, with various molar ratios (0.25-0.59) of sodium metabisulfite added. The metabisulfite/adrenaline molar ratios tested were 0.25, 0.34, 0.42, 0.5 and 0.59, which correspond to sulfite/adrenaline ratios of 0.5, 0.68, 0.84, 1.0 and 1.18, respectively. For the ease of reference to the general description and claims of this specification, the said values correspond to a molar ratio of adrenaline to sulfite of 2.0, 1.47, 1.19, 1.0 and 0.85, respectively.
Each sample solution was split into two lots. For each sample solution, one lot was placed at the accelerated test temperature of 60° C., protected from light and the other lot placed in a photo-stability cabinet at 25° C. which provided 13400 lux visible light, 1.50 W.h/m^2 UV. Samples were pulled from both conditions at 0, 7, 14 and 28 days At each pull point, the appearance of the test solution was assessed, the pH measured and the adrenaline content measured together with impurities.

| SMILES | advantage of using a chelating agent for adrenaline solution stability [1] | pH for maximum stability of epinephrine in solution | molar ratio of metabisulfite to adrenaline in which stability of adrenaline is improved [2] | optimum sulfite:adrenaline ratio ([2]; Examples 2 and 3 summarised, 60° C., FIGS. 8 and 9) | first choice of metabisulfite content with respect to adrenaline ([2]; considering both thermal and photo stresses) | best metabisulfite:adrenaline ratio on the basis of total impurities ([2]; heat stress 60° C.) | best metabisulfite:adrenaline ratio on the basis of total impurities ([2]; photo-stress, 25° C., 13400 lux visible light, 1.50 W.h/m^2 UV) |
| --- | --- | --- | --- | --- | --- | --- | --- |
| O=C([O-])CN(CCN(CC(=O)[O-])CC(=O)O)CC(=O)O.[Na+].[Na+] [di-sodium edetate] | no advantage | – | – | – | – | – | – |
| CNC[C@H](O)c1ccc(O)c(O)c1 [adrenaline, (R)-4-(1-hydroxy-2-(methylamino)ethyl)benzene-1,2-diol] | – | about 3.4 | 0.25-0.59 | about 1.0 | half molar | 0.42 | 0.5 |
